Laboratory results from PubChem BioAssay AID248 (DTP/NCI, 2004).
Inconclusive results and toxic doses are left out. Rule as the data show it: active = T/C of 150% or more; inactive = T/C below 125%.

System: L1210 leukemia ip in BDF1 mice, survival T/C
Test: NCI In Vivo Anticancer Drug Screen. Data for tumor model L1210 Leukemia (intraperitoneal) in B6D2F1 (BDF1) mice
Conditions: endpoint: mean survival time, higher = longer survival
Procedure, shortened: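 Antitumor effect is assessed in tumor-bearing animals. Survival in the compound arm is compared with a vehicle-dosed control arm and expressed as their quotient.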

[1] = dose: 400.0 mg/kg/injection, schedule: Q01DX001 (ip), vehicle: saline
[2] = dose: 100.0 mg/kg/injection, schedule: Q01DX001 (ip), vehicle: saline
[3] = dose: 200.0 mg/kg/injection, schedule: Q01DX001 (ip), vehicle: saline
[4] = dose: 50.0 mg/kg/injection, schedule: Q01DX009 (ip), vehicle: Klucel (hydroxypropylcellulose) (HPC)
[5] = dose: 100.0 mg/kg/injection, schedule: Q01DX009 (ip), vehicle: Klucel (hydroxypropylcellulose) (HPC)
[6] = dose: 100.0 mg/kg/injection, schedule: Q04DX003 (ip), vehicle: Klucel (hydroxypropylcellulose) (HPC)
[7] = dose: 200.0 mg/kg/injection, schedule: Q01DX009 (ip), vehicle: Klucel (hydroxypropylcellulose) (HPC)
[8] = dose: 200.0 mg/kg/injection, schedule: Q04DX003 (ip), vehicle: Klucel (hydroxypropylcellulose) (HPC)
[9] = dose: 400.0 mg/kg/injection, schedule: Q04DX003 (ip), vehicle: Klucel (hydroxypropylcellulose) (HPC)
[10] = dose: 100.0 mg/kg/injection, schedule: Q01DX001 (ip), vehicle: carboxymethylcellulose (CMC)
[11] = dose: 200.0 mg/kg/injection, schedule: Q01DX001 (ip), vehicle: carboxymethylcellulose (CMC)
[12] = dose: 400.0 mg/kg/injection, schedule: Q01DX009 (ip), vehicle: Klucel (hydroxypropylcellulose) (HPC)
[13] = dose: 100.0 mg/kg/injection, schedule: Q01DX001 (ip), vehicle: Klucel (hydroxypropylcellulose) (HPC)
[14] = dose: 200.0 mg/kg/injection, schedule: Q01DX001 (ip), vehicle: Klucel (hydroxypropylcellulose) (HPC)
[15] = dose: 100.0 mg/kg/injection, schedule: Q01DX009 (ip), vehicle: saline with Tween-80
[16] = dose: 100.0 mg/kg/injection, schedule: Q04DX002 (ip), vehicle: saline with Tween-80
[17] = dose: 200.0 mg/kg/injection, schedule: Q01DX009 (ip), vehicle: saline with Tween-80
[18] = dose: 200.0 mg/kg/injection, schedule: Q04DX002 (ip), vehicle: saline with Tween-80
[19] = dose: 400.0 mg/kg/injection, schedule: Q01DX009 (ip), vehicle: saline with Tween-80

Measured: T/C

Clc1ccc(OCC2=NCCc3ccccc32)cc1
inactive: dose: 300.0 mg/kg/injection, schedule: Q01DX001 (ip), vehicle: saline 98 % of control | [1] 104 % of control

O=C(CCCC(=O)N/N=C/c1ccc(I)cc1)N/N=C\c1ccc(I)cc1
inactive: dose: 50.0 mg/kg/injection, schedule: Q01DX001 (ip), vehicle: saline 100 % of control | [2] 93 % of control | [3] 93 % of control | [1] 97 % of control

CC12CCCC(C(C#N)C(N)=O)(C1)NC(=O)C2C#N (stereo not drawn)
inactive: [2] 107 % of control | [3] 96 % of control

O=C(NCCc1ccccc1)C(Cl)Cl
inactive: [4] 93 % of control | [5] 93 % of control | [6] 103 % of control | [7] 94 % of control | [8] 95 % of control | [9] 101 % of control

CC(C(O)c1ccc(Br)cc1)C(O)(C(F)(F)F)C(F)(F)F (stereo not drawn)
inactive: dose: 100.0 mg/kg/injection, schedule: Q01DX009 (ip), vehicle: other 111 % of control | dose: 200.0 mg/kg/injection, schedule: Q01DX009 (ip), vehicle: other 97 % of control | dose: 400.0 mg/kg/injection, schedule: Q01DX009 (ip), vehicle: other 103 % of control

O=c1nc(NO)ccn1C1CCCO1 (stereo not drawn)
inactive: [10] 96 % of control | [11] 100 % of control | dose: 400.0 mg/kg/injection, schedule: Q01DX001 (ip), vehicle: carboxymethylcellulose (CMC) 96 % of control

O=C(c1ccccc1)C1Cc2ccccc2C1=O (stereo not drawn)
inactive: [5] 100 % of control | dose: 100.0 mg/kg/injection, schedule: Q04DX003 (ip), vehicle: saline 102 % of control | [7] 114 % of control | dose: 200.0 mg/kg/injection, schedule: Q04DX003 (ip), vehicle: saline 102 % of control | [12] 97 % of control | dose: 400.0 mg/kg/injection, schedule: Q04DX003 (ip), vehicle: saline 102 % of control

CCOC(=O)COc1cc(N)c(Cl)cc1Cl
inactive: dose: 100.0 mg/kg/injection, schedule: Q04DX002 (ip), vehicle: gum acacia 95 % of control | dose: 200.0 mg/kg/injection, schedule: Q04DX002 (ip), vehicle: gum acacia 95 % of control | dose: 400.0 mg/kg/injection, schedule: Q04DX002 (ip), vehicle: gum acacia 92 % of control

c1ccc(P(=NC2CCCCCCC2)(c2ccccc2)c2ccccc2)cc1
inactive: dose: 100.0 mg/kg/injection, schedule: Q01DX001 (ip), vehicle: saline with Tween-80 96 % of control | dose: 200.0 mg/kg/injection, schedule: Q01DX001 (ip), vehicle: saline with Tween-80 98 % of control | dose: 400.0 mg/kg/injection, schedule: Q01DX001 (ip), vehicle: saline with Tween-80 105 % of control

O=Nc1c(O)[nH]c(=O)[nH]c1=O
inactive: [13] 95 % of control | [14] 106 % of control

CC(C)C(N)(CCN1CCOCC1)c1cccc2ccccc12 (stereo not drawn)
inactive: [15] 99 % of control | [16] 88 % of control | [17] 101 % of control | [18] 92 % of control

Cc1cccc(NC(=S)NCCc2ccccn2)c1
inactive: [16] 97 % of control | [18] 97 % of control

COC(=O)c1ccccc1N=Nc1cc(C)c(C)cc1O
inactive: [5] 88 % of control | [7] 88 % of control | [12] 91 % of control

O=C(NCc1ccc(Cl)cc1)Nc1cccc(F)c1
inactive: dose: 100.0 mg/kg/injection, schedule: Q01DX009 (ip), vehicle: gum acacia 105 % of control | dose: 200.0 mg/kg/injection, schedule: Q01DX009 (ip), vehicle: gum acacia 86 % of control | dose: 400.0 mg/kg/injection, schedule: Q01DX009 (ip), vehicle: gum acacia 98 % of control

Cc1cn(C2C=CC(CO)O2)c(=O)[nH]c1=O (stereo not drawn)
inactive: [15] 89 % of control | [19] 90 % of control

OCC1OC2OC(c3ccccc3)(c3ccc(OCc4ccccc4)nc3OCc3ccccc3)OC2C1O (stereo not drawn)
inactive: dose: 100.0 mg/kg/injection, schedule: Q01DX001 (ip), vehicle: other 88 % of control | dose: 200.0 mg/kg/injection, schedule: Q01DX001 (ip), vehicle: other 90 % of control | dose: 400.0 mg/kg/injection, schedule: Q01DX001 (ip), vehicle: other 92 % of control

COCN(C(=O)CCl)c1c(C)cccc1C(C)(C)C
inactive: [15] 95 % of control | [17] 97 % of control | [19] 93 % of control

COC1=C2C=[N+](C)C3C(=C2C=CC1OC)Cc1cc2c(cc13)OCO2 (stereo not drawn)
inactive: dose: 50.0 mg/kg/injection, schedule: Q01DX001 (ip), vehicle: carboxymethylcellulose (CMC) 104 % of control | [10] 107 % of control | [11] 102 % of control

O=C(O)C1Nc2ccccc2NC1=O (stereo not drawn)
inactive: [13] 100 % of control | [14] 94 % of control | dose: 400.0 mg/kg/injection, schedule: Q01DX001 (ip), vehicle: Klucel (hydroxypropylcellulose) (HPC) 106 % of control

O=S(=O)(Nc1cccc2ccccc12)c1ccc(Cl)cc1
inactive: [5] 102 % of control | [7] 87 % of control | [12] 95 % of control

CC(=O)C1C=NCCN=CC(C(C)=O)C(C)=NCCCN=C1C.[Ni] (stereo not drawn)
inactive: [4] 101 % of control | [5] 105 % of control | [6] 100 % of control | [7] 103 % of control | [8] 95 % of control | [9] 106 % of control

CCCC(C)OS(=O)(=O)c1ccc([N+](=O)[O-])cc1 (stereo not drawn)
inactive: dose: 100.0 mg/kg/injection, schedule: Q04DX002 (ip), vehicle: saline 101 % of control | dose: 200.0 mg/kg/injection, schedule: Q04DX002 (ip), vehicle: saline 90 % of control | dose: 400.0 mg/kg/injection, schedule: Q04DX002 (ip), vehicle: saline 92 % of control

Cc1cc2c3ccccc3nc(C(F)(F)F)n2n1
inactive: [15] 97 % of control | [17] 103 % of control | [19] 95 % of control

C=CCC(Cl)(C(=O)OC)C(=O)OC
inactive: dose: 100.0 mg/kg/injection, schedule: Q04DX003 (ip), vehicle: saline with Tween-80 91 % of control | dose: 200.0 mg/kg/injection, schedule: Q04DX003 (ip), vehicle: saline with Tween-80 89 % of control | dose: 400.0 mg/kg/injection, schedule: Q04DX003 (ip), vehicle: saline with Tween-80 94 % of control
